# Source: patent US11980620B2, “Compounds and methods for treatment of Diamond Blackfan anemia” (THE CHILDREN'S MEDICAL CENTER CORPORATION, priority 2017, dated 2024)
# How the values were obtained:
# [1] = tested on: K562 erythroleukemia cells transduced with shRPS19; assay: Autophagy induction (p62, LC3-I, LC3-II protein levels) in K562 cells transduced with shRPS19; assay type: cell-based, human; conditions: 5-FU 100 nM
# Method: (FIG. 13A) Induction of autophagy by SMER28 (40 μM) monitored by protein levels of p62, LC3-I, and LC3-II after 24 hours. Cells were also treated with 5-FU (100 nM) to induce autophagy, or inhibitor of transcription actinomycin D (ActD; 100 nM). (FIG. 13B) Induction of autophagy by SMER28 (40 μM) monitored by protein levels of p62, LC3-I, and LC3-II after 24 hours treatment with or without lysosomal blockade with bafilomycin A (200 nM for 4 hours). Untreated samples are shown at higher exposure, to capture dynamic changes in the LC3-II levels. Rapamycin (200 nM) is a positive control. LC3-II levels relative to GAPDH are quantitated on the right. (FIG. 13C) Erythroid differentiation of CD34-5F cells transduced with shRNAs for luciferase (LUC) or ATG5±SMER28. Representative flow plots and quantitation showing the number of erythroid cells induced by SMER28 (10 μM) normalized to DMSO. 2 control luciferase shRNAs and 2 ATG5 shRNAs are included (knockdown efficiency in hematopoietic cells of 58% and 50%, respectively), each with 2 independent lines; p=0.005, 3 independent experiments. (FIG. 13D) Atg5 deficiency causes anemia in zebrafish. Wild-type zebrafish embryos were treated with 1.6 ng atg5 or missense morpholino, and hemoglobin staining was visualized with benzidine staining at 40 hpf with SMER28 (1 μM). Representative images (left), and quantitation (right) with embryos grouped by high, medium, and low levels of benzidine staining.
# SMER28 was identified as an mTOR-independent inducer of autophagy, by synergizing with rapamycin to promote clearance of protein aggregates in models of neurodegenerative disease (Sarkar et al., 2007; Tian et al., 2011). Autophagy is a pro-survival pathway induced by a variety of stresses, such as nutrient limitation or protein aggregation. Autophagy is required for clearance of mitochondria during terminal erythroid maturation (Mortensen and Simon, 2010), but has not been linked with earlier stages of erythropoiesis. To determine if SMER28 modulates autophagy in erythroid cells, we interrogated the levels of p62 and LC3 in K562 erythroleukemia cells transduced with shRPS19. SMER28 reduced p62 and increased the levels of […] LC3-II isoform associated with autophagosomes (FIG. 13A). […] To measure autophagic flux, we monitored LC3-II levels after blocking lysosomal fusion with bafilomycin A. SMER28 increased LC3-II levels following lysosomal blockade, similarly to the mTOR inhibitor rapamycin (FIG. 13B).
# Drug treatments. SMER28 was purchased from Tocris and diluted in 10 mM aliquots in DMSO. The final concentration for CD34-5F and CB CD34^+erythroid treatments was 0.2-10 μM as indicated in the text. The final concentration for K562 cell treatments was 20-40 μM. […]
# CB CD34+ cells = assay type: in vivo, NSG mice; conditions: 1 mg/kg Dex (sodium-phosphate) for 4 weeks; p=0.04
# Method: (FIG. 10A) SMER28 rescues RBC output in rps29^+/− zebrafish embryos. The level of hemoglobin in the yolk sac was visualized 40hpf with benzidine staining. Images are representative of the proportion of embryos indicated (of total counted). (FIG. 10B) Quantitation of SMER28 rescue for a range of 0.1-1 μM, with embryos grouped by high, medium, and low levels of hemoglobin staining. (FIG. 10C) Peripheral blood (PB) RBC counts and hematocrit in mice with irradiation-induced anemia. Mice were treated with the PEG400-based vehicle containing DMSO (VEH) (n=11), 1 mg/kg Dex (sodium-phosphate) (n=13), or 10 mg/kg SMER28 (n=9) for 3 weeks, bled, and assessed. Data are combined from 3 independent experiments. (FIG. 10D) Erythroid cells as proportion of the human graft in mice transplanted with DBA CD34-5F progenitors, and treated as in (FIG. 1c). (FIG. 10E) Levels of human engraftment in NSG mouse bone marrow (BM) transplanted with CB CD34^+ cells. Mice were treated with DMSO plus vehicle (VEH) (n=10), 1 mg/kg Dex (sodium-phosphate) (n=6), or 2 mg/kg SMER28 (n=11) for 4 weeks. (FIG. 10F) The proportion of erythroid, myeloid, and lymphoid (B cells) lineages within the human graft in vehicle- and SMER28-treated mice transplanted with CB CD34^+ cells. Only the effect on the erythroid lineage was significant. Data in FIGS. 10E-10G are pooled from 2 independent experiments. For all panels, *p<0.05, * *p<0.01.
# Drug treatments. SMER28 was purchased from Tocris and diluted in 10 mM aliquots in DMSO. The final concentration for CD34-5F and CB CD34^+erythroid treatments was 0.2-10 μM as indicated in the text. The final concentration for K562 cell treatments was 20-40 μM. Ferric citrate (1-50 μM) and deferoxamine (100-200 μM) (Sigma) were dissolved in PBS and added on days 0-4 of “expansion” culture, and washed off prior to erythroid stage I (days 4-9) differentiation. For in vivo experiments, SMER28 aliquots were diluted in vehicle solution: 30% PEG-400, 5% propylene glycol, and 0.5% Tween-80. Dosing for human xenograft experiments was 2 mg/kg; for mouse models 10-20 mg/kg. Dexamethasone was purchased as Dex-sodium phosphate (DexSP) water-soluble formulation (Santa Cruz), and diluted in PBS vehicle (1 mg/kg). NSG mice were sub-lethally irradiated at 275 rads, and administered 100 μl of drug or vehicle by oral gavage daily.
# [2] = tested on: CD71+ cells in a erythroid cell population; assay: Percentage of CD71+ cells in an erythroid cell population in vitro; assay type: cell-based; conditions: between 5-20 μM in vitro
# Description: Accordingly, in some embodiments, an autophagy activator as disclosed herein can be administered to a subject according to the methods as disclosed herein in an effective dose to increase the levels of CD71+ cells in an erythroid cell population obtained from the subject by at least about 1%, at least about 2%, at least about 3%, at least about 5%, at least about 10%, at least about 15%, least about 20%, at least about 30%, at least about 40%, at least about 50%, or more than 50%, as compared to in the absence of an autophagy activator.
compound,measurement,setting,value
"O=c1[nH]cc(F)c(=O)[nH]1 [5-fluorouracil, reference compound]",conversion of cytosolic LC3-I into LC3-II,[1],induced
"C[C@@H]1C[C@H]2[C@@H]3CCC4=CC(=O)C=C[C@]4(C)[C@@]3(F)[C@@H](O)C[C@]2(C)[C@@]1(O)C(=O)CO [Dex, Dexamethasone, reference compound]",RBC output as proportion of human graft,CB CD34+ cells,10.4%
CN1CCN(CCCN2c3ccccc3Sc3ccc(C(F)(F)F)cc32)CC1 [TFP],percentage of CD71+ cells,[2],restored
